Article PMC9147192, “Small Molecule Arranged Thermal Proximity Coaggregation (smarTPCA)—A Novel Approach to Characterize Protein–Protein Interactions in Living Cells by Similar Isothermal Dose–Responses” (International Journal of Molecular Sciences, 2022)
Where “and” joins values, the source holds several entries; their conditions need not be identical. Equal entries are not always repeated. Where two headings read alike, the source gives them in different places.

Tests used:
MTMR1 = MTMR1 (Homo sapiens, UniProt Q13613); experiment: TPP-CCR in living HL-60 cells
GSK-3α = target: T1, GSK-3α (Homo sapiens, UniProt P49840); experiment: CETSA in HL-60 cell extract, immunoblot; assay type: binding; settings: for ΔTm at 20 µM / Tm (GSK-3α): 20 µM inhibitor; for Tm difference vs DMSO, same protein: inhibitor minus DMSO; for Tm (fitted melting curve): in °C; for Tm: GSK-3α, cell extract
T1 construct: parallel detection of MAPK14, MAPKAPK2, MAPKAPK3, and GSK-3α; endogenous in cells; host or cells: HL-60 (ATCC CCL-240), living cells or cell extract
T1 sequence (P49840 whole entry): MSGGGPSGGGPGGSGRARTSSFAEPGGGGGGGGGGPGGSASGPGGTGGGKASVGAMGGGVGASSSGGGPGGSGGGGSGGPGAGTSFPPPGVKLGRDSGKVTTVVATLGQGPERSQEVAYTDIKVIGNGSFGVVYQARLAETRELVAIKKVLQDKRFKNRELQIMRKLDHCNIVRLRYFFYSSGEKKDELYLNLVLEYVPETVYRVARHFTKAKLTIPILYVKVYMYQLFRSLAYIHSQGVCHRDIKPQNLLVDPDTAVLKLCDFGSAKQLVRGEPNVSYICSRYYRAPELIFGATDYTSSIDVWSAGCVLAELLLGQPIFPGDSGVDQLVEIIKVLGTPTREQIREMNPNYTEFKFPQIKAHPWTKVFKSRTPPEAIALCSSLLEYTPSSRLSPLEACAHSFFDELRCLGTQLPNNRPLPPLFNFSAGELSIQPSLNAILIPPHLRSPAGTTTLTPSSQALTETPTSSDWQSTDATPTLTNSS
Procedure: (§1) For the differentiation of primary and secondary binding effects, CETSA experiments using cell extracts instead of living cells (cell extract test) are proposed in the literature. Therefore, we performed CETSA assays in HL-60 cell extracts under the same conditions as for living cells (Figure 1, Table 1, Supplementary Table S6).
(§2) HL-60 cells were expanded as described above for CETSA and TPP-TR to about 1.25 million cells per ml. 50 mL of the cell suspension, respectively, was transferred into 50 mL conical tubes. After centrifugation (300 rcf, 3 min, r.t.) and removing all of the supernating culture medium, the cells were washed twice with 25 mL PBS (r.t.) by gently resuspending the cells, followed by centrifugation (300 rcf, 3 min, r.t.) and the removal of the supernatant. The cells were transferred into pre-weighed 2 mL LoBind Eppendorf tubes using 1 mL PBS (r.t.), respectively, for resuspending. After centrifugation (300 rcf, 3 min, r.t.) and removing as much as possible of the supernatants, the cell wet weights were determined. The cells were stored at −80 °C after shock-freezing in liquid nitrogen.
(§3) Cell extracts were obtained by four freeze/thaw cycles as described above for CETSA and TPP-TR using 10 µL ice cold PBS supplemented with protease inhibitors per milligram of cell pellet wet weight for the initial resuspension of the pellet, followed by centrifugation (20,000 rcf, 30 min, 4 °C), and the recovery of the supernatant. After determining the protein content, the cell extracts were diluted to 1.8 mg/mL total protein concentration using ice-cold PBS supplemented with protease inhibitors and aliquots of 99 µL in PCR tube strips, and 1.1 mL in LoBind 1.5 mL Eppendorf tubes were shock-frozen in liquid nitrogen and stored at −80 °C or directly processed.
(§4) A fourth aliquot of 1.8 mg/mL HL-60 cell extract was supplemented with 2.2 µL of DMSO. […] After a brief centrifugation using a benchtop centrifuge, the temperature treatment at the ten different temperatures was performed as described in Section 4.1.1.
(§5) Additionally, the preparation of cell extracts containing the fraction of soluble, non-denatured proteins was performed as described in Section 4.1.1. for living cells, but omitting the freeze/thaw steps for cell lysis.
(§6) For each sample set comprising either ten temperature range samples or ten compound concentration range samples, the same volume of the cell extracts containing the fraction of soluble, non-denatured proteins was used for further analysis. This volume was determined using the two lowest temperature samples (36.5 and 41.2 °C) per temperature range sample set so that they contained an average of 5 µg total protein (e.g., 2.78 µL for all temperature range samples of a sample set whose two lowest temperature samples contain an average of 1.8 mg/mL protein). For the compound concentration range experiments, all samples of a set were used for averaging. The calculated volume was respectively transferred into PCR tubes of a tube strip, supplemented with SDS sample buffer (final concentrations: 25 mM dithiothreitol (DTT), 7.5% glycerol, 3% SDS, 37.5 mM Tris/HCl pH 7.0, 0.005% bromophenol blue), incubated for 10 min at r.t. and applied to SDS-PAGE under external cooling in an ice bath (MW marker: PageRuler pre-stained protein ladder (Thermo scientific, Waltham, MA, USA); NuPAGE 4–12% Bis-Tris Gels, 1.0 mm, Midi Protein Gel, 26-well (Thermo fisher scientific); ice cold MOPS SDS running buffer (50 mM MOPS, 50 mM Tris base, 0.1% SDS, 0.003% EDTA (free acid)); 50 V for 15 min, then 200 V for about 1.5 h, i.e., the rest of the run).

MAPKAPK2 = MAPKAPK2 (Homo sapiens, UniProt P49137); experiment: CETSA in HL-60 cell extract, immunoblot; assay type: binding; settings: for Tm difference vs DMSO, same protein: MAPKAPK2, inhibitor minus DMSO
MAPKAPK2, sequence (P49137 whole entry): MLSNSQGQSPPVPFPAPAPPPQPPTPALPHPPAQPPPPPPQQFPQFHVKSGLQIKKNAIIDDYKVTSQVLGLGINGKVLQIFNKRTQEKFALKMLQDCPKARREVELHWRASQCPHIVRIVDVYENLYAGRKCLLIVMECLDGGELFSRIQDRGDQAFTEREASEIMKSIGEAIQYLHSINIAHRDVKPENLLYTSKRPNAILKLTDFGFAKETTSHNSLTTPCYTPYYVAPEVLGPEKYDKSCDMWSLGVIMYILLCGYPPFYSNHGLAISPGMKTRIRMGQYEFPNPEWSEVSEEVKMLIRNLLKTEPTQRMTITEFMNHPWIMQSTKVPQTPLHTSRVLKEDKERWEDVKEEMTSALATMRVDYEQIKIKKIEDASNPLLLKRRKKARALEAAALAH
Procedure: as §1, §2, §3, §4, §5, §6

HN1L = target: T2, HN1L (Homo sapiens, UniProt Q9H910); experiment: TPP-CCR in living HL-60 cells; settings: for Hill slope (HN1L): living HL-60 cells, […] °C, TMT-MS
T2 sequence (Q9H910 1-190): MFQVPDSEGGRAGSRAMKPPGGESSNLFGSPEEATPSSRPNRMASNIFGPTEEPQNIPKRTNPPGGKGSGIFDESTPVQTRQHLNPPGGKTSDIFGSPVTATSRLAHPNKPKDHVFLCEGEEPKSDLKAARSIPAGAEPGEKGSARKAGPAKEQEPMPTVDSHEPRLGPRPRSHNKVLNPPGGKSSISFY

TRAPPC4 = TRAPPC4 (Homo sapiens, UniProt Q9Y296); experiment: TPP-CCR in living HL-60 cells
TRAPPC4, sequence (Q9Y296 whole entry): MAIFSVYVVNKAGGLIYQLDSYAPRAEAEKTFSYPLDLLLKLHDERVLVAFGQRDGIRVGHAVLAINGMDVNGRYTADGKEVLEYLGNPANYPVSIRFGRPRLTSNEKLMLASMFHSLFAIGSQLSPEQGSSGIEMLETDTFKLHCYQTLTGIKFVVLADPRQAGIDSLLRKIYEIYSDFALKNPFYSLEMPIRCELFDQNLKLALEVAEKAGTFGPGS

MAPK14 [1] = system: MAPK14; set-up: method as in Jafari et al., Nat. Protoc. 2014; settings: MAPK14, living HL-60 cells, ref Jafari et al., Nat. Protoc. 2014, cited from earlier work
MAPK14 [2] = system: MAPK14; set-up: method as in Seashore-Ludlow et al., Biochemistry 2018; settings: MAPK14 only, extrapolated to 50°C and extracted from figure 3b; ref Seashore-Ludlow et al., Biochemistry 2018; cited from earlier work
NUDT1 = NUDT1 (Homo sapiens, UniProt P36639); experiment: TPP-CCR in living HL-60 cells
USP24 = USP24 (Homo sapiens, UniProt Q9UPU5); experiment: TPP-CCR in living HL-60 cells
USP24, sequence (Q9UPU5 whole entry): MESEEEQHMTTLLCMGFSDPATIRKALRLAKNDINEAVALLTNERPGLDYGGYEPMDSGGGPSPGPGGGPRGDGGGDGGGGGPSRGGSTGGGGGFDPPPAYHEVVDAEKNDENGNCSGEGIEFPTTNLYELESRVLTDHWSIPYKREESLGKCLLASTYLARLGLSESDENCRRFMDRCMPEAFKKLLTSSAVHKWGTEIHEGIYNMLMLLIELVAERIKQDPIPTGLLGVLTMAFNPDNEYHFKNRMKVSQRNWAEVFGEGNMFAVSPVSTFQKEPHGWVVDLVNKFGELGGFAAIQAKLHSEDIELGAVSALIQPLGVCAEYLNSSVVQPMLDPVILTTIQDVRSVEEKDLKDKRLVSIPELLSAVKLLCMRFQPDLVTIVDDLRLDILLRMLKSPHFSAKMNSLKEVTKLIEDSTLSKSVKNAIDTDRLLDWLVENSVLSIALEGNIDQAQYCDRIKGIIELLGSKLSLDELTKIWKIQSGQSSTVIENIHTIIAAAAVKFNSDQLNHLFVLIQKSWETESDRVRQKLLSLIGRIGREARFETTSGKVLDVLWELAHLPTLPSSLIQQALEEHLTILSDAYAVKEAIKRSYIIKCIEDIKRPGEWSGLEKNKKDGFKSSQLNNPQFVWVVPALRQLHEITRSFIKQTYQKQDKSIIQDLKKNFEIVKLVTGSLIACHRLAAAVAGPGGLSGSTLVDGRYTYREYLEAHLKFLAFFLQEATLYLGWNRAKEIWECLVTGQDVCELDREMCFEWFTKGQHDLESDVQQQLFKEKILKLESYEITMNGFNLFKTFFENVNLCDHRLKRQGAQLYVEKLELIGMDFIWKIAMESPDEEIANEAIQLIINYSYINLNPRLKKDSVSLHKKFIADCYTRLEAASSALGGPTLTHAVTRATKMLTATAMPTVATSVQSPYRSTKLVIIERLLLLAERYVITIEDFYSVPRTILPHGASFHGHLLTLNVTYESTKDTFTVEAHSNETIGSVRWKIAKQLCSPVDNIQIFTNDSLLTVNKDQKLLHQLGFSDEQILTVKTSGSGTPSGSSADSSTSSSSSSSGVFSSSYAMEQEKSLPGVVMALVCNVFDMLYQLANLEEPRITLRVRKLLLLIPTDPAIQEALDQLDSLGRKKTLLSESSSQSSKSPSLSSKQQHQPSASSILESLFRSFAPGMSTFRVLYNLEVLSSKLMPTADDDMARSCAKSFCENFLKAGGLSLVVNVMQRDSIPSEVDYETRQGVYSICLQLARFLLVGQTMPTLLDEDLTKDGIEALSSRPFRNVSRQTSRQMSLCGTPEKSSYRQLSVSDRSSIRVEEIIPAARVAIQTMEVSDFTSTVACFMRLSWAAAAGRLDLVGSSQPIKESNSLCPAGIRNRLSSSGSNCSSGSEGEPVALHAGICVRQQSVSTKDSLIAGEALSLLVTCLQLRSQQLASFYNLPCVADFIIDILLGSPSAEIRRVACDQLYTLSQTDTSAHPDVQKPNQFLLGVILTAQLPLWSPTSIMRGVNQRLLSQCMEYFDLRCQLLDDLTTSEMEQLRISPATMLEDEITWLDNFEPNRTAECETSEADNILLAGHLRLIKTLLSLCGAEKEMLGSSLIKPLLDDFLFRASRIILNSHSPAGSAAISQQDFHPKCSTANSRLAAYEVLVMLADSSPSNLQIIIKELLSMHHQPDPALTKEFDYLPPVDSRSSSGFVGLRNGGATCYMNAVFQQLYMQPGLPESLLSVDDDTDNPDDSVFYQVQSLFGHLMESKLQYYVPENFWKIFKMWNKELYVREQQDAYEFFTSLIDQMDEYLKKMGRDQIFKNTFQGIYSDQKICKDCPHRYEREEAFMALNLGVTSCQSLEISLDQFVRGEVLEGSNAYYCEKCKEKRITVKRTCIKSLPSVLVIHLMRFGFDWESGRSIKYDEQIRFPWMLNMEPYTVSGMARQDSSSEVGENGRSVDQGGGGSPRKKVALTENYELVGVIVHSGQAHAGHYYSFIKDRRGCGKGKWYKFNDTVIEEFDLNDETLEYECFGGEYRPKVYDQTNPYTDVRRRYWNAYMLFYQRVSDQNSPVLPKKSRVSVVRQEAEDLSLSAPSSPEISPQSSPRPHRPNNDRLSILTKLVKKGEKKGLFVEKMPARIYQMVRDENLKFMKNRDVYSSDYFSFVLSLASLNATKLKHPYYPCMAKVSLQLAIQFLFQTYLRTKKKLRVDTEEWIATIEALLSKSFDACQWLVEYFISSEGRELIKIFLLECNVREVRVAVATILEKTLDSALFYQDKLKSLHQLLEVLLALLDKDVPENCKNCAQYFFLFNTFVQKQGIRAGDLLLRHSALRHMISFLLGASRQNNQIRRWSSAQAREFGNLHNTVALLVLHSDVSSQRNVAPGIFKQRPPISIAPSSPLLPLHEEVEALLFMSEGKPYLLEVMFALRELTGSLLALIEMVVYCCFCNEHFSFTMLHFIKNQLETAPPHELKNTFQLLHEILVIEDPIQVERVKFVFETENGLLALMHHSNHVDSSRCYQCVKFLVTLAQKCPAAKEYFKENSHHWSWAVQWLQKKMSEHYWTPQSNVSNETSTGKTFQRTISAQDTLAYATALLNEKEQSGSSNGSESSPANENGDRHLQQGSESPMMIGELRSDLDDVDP

WDR46 = WDR46 (Homo sapiens, UniProt O15213); experiment: TPP-CCR in living HL-60 cells
WDR46, sequence (O15213 whole entry): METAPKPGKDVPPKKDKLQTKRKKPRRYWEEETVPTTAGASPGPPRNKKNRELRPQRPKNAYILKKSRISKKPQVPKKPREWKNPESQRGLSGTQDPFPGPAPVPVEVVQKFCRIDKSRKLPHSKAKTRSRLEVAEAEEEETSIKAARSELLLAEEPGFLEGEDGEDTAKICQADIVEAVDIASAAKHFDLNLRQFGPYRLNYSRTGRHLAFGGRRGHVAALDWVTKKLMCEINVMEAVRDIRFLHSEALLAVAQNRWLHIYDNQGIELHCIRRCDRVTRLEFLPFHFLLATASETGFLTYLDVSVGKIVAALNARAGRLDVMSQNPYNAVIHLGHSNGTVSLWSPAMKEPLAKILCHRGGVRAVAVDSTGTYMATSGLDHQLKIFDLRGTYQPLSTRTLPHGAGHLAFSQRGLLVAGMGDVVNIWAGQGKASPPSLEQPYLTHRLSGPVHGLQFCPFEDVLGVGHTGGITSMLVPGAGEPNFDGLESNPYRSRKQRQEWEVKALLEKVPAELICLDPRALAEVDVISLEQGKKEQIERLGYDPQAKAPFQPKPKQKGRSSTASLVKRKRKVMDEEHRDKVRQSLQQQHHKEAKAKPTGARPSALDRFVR

NAPG = NAPG (Homo sapiens, UniProt Q99747); experiment: TPP-CCR in living HL-60 cells
NAPG, sequence (Q99747 whole entry): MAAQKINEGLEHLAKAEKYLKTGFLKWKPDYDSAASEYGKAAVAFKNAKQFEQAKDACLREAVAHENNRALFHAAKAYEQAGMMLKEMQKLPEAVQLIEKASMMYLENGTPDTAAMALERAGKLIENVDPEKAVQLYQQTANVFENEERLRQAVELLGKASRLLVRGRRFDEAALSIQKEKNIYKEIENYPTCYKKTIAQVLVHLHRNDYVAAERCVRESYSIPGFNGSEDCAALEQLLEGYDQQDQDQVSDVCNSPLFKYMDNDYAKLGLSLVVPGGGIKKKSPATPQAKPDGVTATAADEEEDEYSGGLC

[3] = living HL-60 cells, […] °C, TMT-MS
[4] = read-out: ΔTm to DMSO in Cell Extract Compared to Living Cells (GSK-3α)
[5] = CETSA in cell extract (lysate), GSK3a
[6] = HL-60 cell extract, immunoblot, read-out: ΔTm to DMSO (GSK-3α)
[7] = MAPKAPK2, cell extract, immunoblot

Cn1c(NC[C@@H](N)Cc2ccccc2)nc(-c2ccncc2)c(-c2ccc3ccccc3c2)c1=O [AMG-548]
EC50 (MTMR1): 105 nM
Hill slope (MTMR1) (MTMR1; [3]): 0.38
ΔTm at 20 µM (GSK-3α; [4]): -0.05 °C
Tm difference vs DMSO, same protein (GSK-3α; [5]): -0.76
Tm (fitted melting curve) (GSK-3α; [5]): 48.26
Tm (GSK-3α; immunoblot): 48.26 °C
Tm (GSK-3α) (GSK-3α; HL-60 cell extract, immunoblot): 48.26 °C
ΔTm at 20 µM (GSK-3α; [6]): -0.76 °C
ΔTm to DMSO in Cell Extract Compared to Living Cells (MAPKAPK2) (MAPKAPK2; 20 µM inhibitor): −2.22 °C
Tm difference vs DMSO, same protein (MAPKAPK2; CETSA in cell extract (lysate)): 2.96
Tm (fitted melting curve) (MAPKAPK2; CETSA in cell extract (lysate), MAPKAPK2, in °C): 51.06
Tm (MAPKAPK2) (MAPKAPK2; HL-60 cell extract, 20 µM inhibitor, immunoblot): 51.06 °C
ΔTm to DMSO (MAPKAPK2) (MAPKAPK2; HL-60 cell extract, 20 µM inhibitor, immunoblot, 20 µM): 3.0 °C and 2.96 °C
ΔTm to DMSO in cell extract compared to living cells (MAPKAPK2; MAPKAPK2, cell extract minus living cells): -2.22 °C
Tm (MAPKAPK2; [7]): 51.06 °C
ΔTm to DMSO (MAPKAPK2; [7]): 2.96 °C
EC50 (HN1L): 389 nM
Hill slope (HN1L) (HN1L): 0.39
EC50 (TRAPPC4): 407 nM
Hill slope (TRAPPC4) (TRAPPC4; [3]): 0.43
Tagg values (given as averages ± s.d.), AlphaScreen (MAPK14 [1]): 59.2 ± 0.9 °C
Tagg values (given as averages ± s.d.), Western blot (MAPK14 [1]): 60.6 ± 1.0 °C
pEC50, Cell extract (MAPK14 [2]): 8.14
EC50 (NUDT1): 2290 nM
Hill slope (NUDT1) (NUDT1; [3]): 0.77
EC50 (USP24): 2.69 nM
Hill slope (USP24) (USP24; [3]): 0.71

Cc1cnc(Nc2ccc(F)cc2Cl)nc1-c1c[nH]c(C(=O)N[C@H](CO)c2cccc(Cl)c2)c1 [ERK 11e]
ΔTm at 20 µM (GSK-3α; [4]): 1.1 °C
Tm difference vs DMSO, same protein (GSK-3α; [5]): 1.24
Tm (fitted melting temperature) (GSK-3α; CETSA in cell extract (lysate), GSK3a, melting curve fit, in °C (unit assumed)): 50.2547
Tm (fitted melting curve) (GSK-3α; [5]): 50.25
Tm (GSK-3α; immunoblot): 50.25 °C
Tm (GSK-3α) (GSK-3α; HL-60 cell extract, immunoblot): 50.25 °C
ΔTm at 20 µM (GSK-3α; [6]): 1.24 °C
ΔTm at 20 µM (MAPKAPK2; 20 µM inhibitor, read-out: ΔTm to DMSO in Cell Extract Compared to Living Cells (MAPKAPK2)): 0.25 °C
Tm difference vs DMSO, same protein (MAPKAPK2; CETSA in cell extract (lysate)): 0.23
ΔTm at 20 µM (MAPKAPK2; HL-60 cell extract, 20 µM inhibitor, immunoblot, read-out: ΔTm to DMSO (MAPKAPK2)): 0.23 °C
EC50 (HN1L): 110 nM
Hill slope (HN1L; TPP-CCR, living cells, HN1L): 0.20
Hill slope (HN1L) (HN1L): 0.20
Tagg values (given as averages ± s.d.), AlphaScreen (MAPK14 [1]): no substantial response (same as DMSO)
Tagg values (given as averages ± s.d.), Western blot (MAPK14 [1]): no substantial response (same as DMSO)

C[S+]([O-])c1ccc(-c2nc(-c3ccncc3)c(-c3ccc(F)cc3)[nH]2)cc1 (stereo not shown) [SB203580]
EC50 (WDR46): 32.4 nM
Hill slope (WDR46) (WDR46; [3]): 0.23
EC50 (NAPG): 1.95 nM
Hill slope (NAPG) (NAPG; [3]): 0.24
